# Test results: US10681909B2, “Herbicidal triazoles” (FMC Corporation, priority 2014, dated 2020)
# Tests used:
# [1] = system: barnyardgrass; assay: Test A preemergence; assay type: in vivo, Echinochloa crus-galli; conditions: 0 to 100 scale (0 no effect, 100 complete control)
# Procedure, shortened: (§1)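 Loam/sand soil mix; compound in non-phytotoxic solvent + surfactant. Pre: directed soil spray right after planting seed. Post: potted plants 2–10 cm, 1–2 leaf stage, sprayed with same formulation.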
# [2] = system: crabgrass, large; assay: Test A preemergence; assay type: in vivo, Digitaria sanguinalis; conditions: 0 to 100 scale (0 no effect, 100 complete control)
# From the text: (§2) Seeds of plant species selected from barnyardgrass (Echinochloa crus-galli), crabgrass, large (large crabgrass, Digitaria sanguinalis), kochia (Kochia scoparia), ragweed (common ragweed, Ambrosia elatior), foxtail, giant (giant foxtail, Setaria faberii), morningglory (Ipomoea spp.), pigweed (Amaranthus retroflexus), velvetleaf (Abutilon theophrasti), ryegrass, Italian (Italian ryegrass, Lolium multiflorum), wheat (Triticum aestivum), and corn (Zea mays) were planted into a blend of loam soil and sand and treated preemergence with a directed soil spray using test chemicals formulated in a non-phytotoxic solvent mixture which included a surfactant. At the same time, plants selected from these crop and weed species and also blackgrass (Alopecurus myosuroides), and galium (catchweed bedstraw, Galium aparine), were planted in pots containing the same blend of loam soil and sand and treated with postemergence applications of test chemicals formulated in the same manner. Plants ranged in height from 2 to 10 cm and were in the one- to two-leaf stage for the postemergence treatment. […] A dash (-) response means no test result.
# [3] = system: foxtail, giant; assay: Test A preemergence; assay type: in vivo, Setaria faberii; conditions: 0 to 100 scale (0 no effect, 100 complete control)
# Procedure, shortened: as §1
# [4] = system: morningglory; assay: Test A preemergence; assay type: in vivo, Ipomoea spp.; conditions: 0 to 100 scale (0 no effect, 100 complete control)
# From the text: as §2
# [5] = system: pigweed; assay: Test A preemergence; assay type: in vivo, Amaranthus retroflexus; conditions: 0 to 100 scale (0 no effect, 100 complete control)
# Procedure, shortened: as §1
# [6] = system: velvetleaf; assay: Test A preemergence; assay type: in vivo, Abutilon theophrasti; conditions: 0 to 100 scale (0 no effect, 100 complete control)
# From the text: as §2
# [7] = system: wheat; assay: Test A preemergence; assay type: in vivo, Triticum aestivum; conditions: 0 to 100 scale (0 no effect, 100 complete control)
# From the text: as §2
# [8] = system: corn; assay: Test A preemergence; assay type: in vivo, Zea mays; conditions: 0 to 100 scale (0 no effect, 100 complete control)
# From the text: as §2
# [9] = system: barnyardgrass; assay: Test A postemergence; assay type: in vivo, Echinochloa crus-galli; conditions: 0 to 100 scale (0 no effect, 100 complete control), approx. 10 d
# Procedure, shortened: as §1
# [10] = system: crabgrass, large; assay: Test A postemergence; assay type: in vivo, Digitaria sanguinalis; conditions: 0 to 100 scale (0 no effect, 100 complete control), approx. 10 d
# From the text: as §2
# [11] = system: foxtail, giant; assay: Test A postemergence; assay type: in vivo, Setaria faberii; conditions: 0 to 100 scale (0 no effect, 100 complete control), approx. 10 d
# Procedure, shortened: as §1
# [12] = system: morningglory; assay: Test A postemergence; assay type: in vivo, Ipomoea spp.; conditions: 0 to 100 scale (0 no effect, 100 complete control), approx. 10 d
# From the text: as §2
# [13] = system: pigweed; assay: Test A postemergence; assay type: in vivo, Amaranthus retroflexus; conditions: 0 to 100 scale (0 no effect, 100 complete control), approx. 10 d
# Procedure, shortened: as §1
# [14] = system: velvetleaf; assay: Test A postemergence; assay type: in vivo, Abutilon theophrasti; conditions: 0 to 100 scale (0 no effect, 100 complete control), approx. 10 d
# From the text: as §2
# [15] = system: wheat; assay: Test A postemergence; assay type: in vivo, Triticum aestivum; conditions: 0 to 100 scale (0 no effect, 100 complete control), approx. 10 d
# Procedure, shortened: as §1
# [16] = system: corn; assay: Test A postemergence; assay type: in vivo, Zea mays; conditions: 0 to 100 scale (0 no effect, 100 complete control), approx. 10 d
# Procedure, shortened: as §1
# [17] = system: rice; assay: Test B flooded paddy test; assay type: in vivo, Oryza sativa; conditions: applied to paddy water at 2-leaf stage, visual rating after 13 to 15 d, scale 0 (no effect) to 100 (complete control)
# From the text: (§3) At time of treatment, test pots were flooded to 3 cm above the soil surface, treated by application of test compounds directly to the paddy water, and then maintained at that water depth for the duration of the test. Treated plants and controls were maintained in a greenhouse for 13 to 15 d, after which time all species were compared to controls and visually evaluated. […] A dash (-) response means no test result.
# [18] = system: sedge, umbrella; assay: Test B flooded paddy test; assay type: in vivo, Cyperus difformis; conditions: applied to paddy water at 2-leaf stage, visual rating after 13 to 15 d, scale 0 (no effect) to 100 (complete control)
# From the text: as §3
# [19] = system: ducksalad; assay: Test B flooded paddy test; assay type: in vivo, Heteranthera limosa; conditions: applied to paddy water at 2-leaf stage, visual rating after 13 to 15 d, scale 0 (no effect) to 100 (complete control)
# From the text: as §3
# [20] = system: barnyardgrass; assay: Test B flooded paddy test; assay type: in vivo, Echinochloa crus-galli; conditions: applied to paddy water at 2-leaf stage, visual rating after 13 to 15 d, scale 0 (no effect) to 100 (complete control)
# From the text: as §3
Compound,"Plant response rating, Barnyardgrass ([1]; 125 g ai/ha)","Plant response rating, Barnyardgrass ([1]; 500 g ai/ha, approx. 10 d)","Plant response rating, Crabgrass, Large ([2]; 125 g ai/ha)","Plant response rating, Crabgrass, Large ([2]; 500 g ai/ha, approx. 10 d)","Plant response rating, Foxtail, Giant ([3]; 125 g ai/ha)","Plant response rating, Foxtail, Giant ([3]; 500 g ai/ha, approx. 10 d)","Plant response rating, Morningglory ([4]; 125 g ai/ha)","Plant response rating, Morningglory ([4]; 500 g ai/ha, approx. 10 d)","Plant response rating, Pigweed ([5]; 125 g ai/ha)","Plant response rating, Pigweed ([5]; 500 g ai/ha, approx. 10 d)","Plant response rating, Velvetleaf ([6]; 125 g ai/ha)","Plant response rating, Velvetleaf ([6]; 500 g ai/ha, approx. 10 d)","Plant response rating, Wheat ([7]; 125 g ai/ha)","Plant response rating, Wheat ([7]; 500 g ai/ha, approx. 10 d)","Plant response rating, Corn ([8]; 125 g ai/ha)","Plant response rating, Corn ([8]; 500 g ai/ha, approx. 10 d)","Plant response rating, Barnyardgrass ([9]; 125 g ai/ha)","Plant response rating, Barnyardgrass ([9]; 500 g ai/ha)","Plant response rating, Crabgrass, Large ([10]; 125 g ai/ha)","Plant response rating, Crabgrass, Large ([10]; 500 g ai/ha)",other results
CCn1nc(-c2ccc(F)cc2)nc1Cc1ccnc(C(F)(F)F)c1 [Compound 18],10,60,90,100,90,100,10,40,100,100,10,70,0,0,0,0,30,60,60,90,"Plant response rating, Foxtail, Giant ([11]; 125 g ai/ha): 50; Plant response rating, Foxtail, Giant ([11]; 500 g ai/ha): 90; Plant response rating, Morningglory ([12]; 125 g ai/ha): 50; Plant response rating, Morningglory ([12]; 500 g ai/ha): 100; Plant response rating, Pigweed ([13]; 125 g ai/ha): 100; Plant response rating, Pigweed ([13]; 500 g ai/ha): 100; Plant response rating, Velvetleaf ([14]; 125 g ai/ha): 30; Plant response rating, Velvetleaf ([14]; 500 g ai/ha): 80; Plant response rating, Wheat ([15]; 125 g ai/ha): 20; Plant response rating, Wheat ([15]; 500 g ai/ha): 30; Plant response rating, Corn ([16]; 125 g ai/ha): 30; Plant response rating, Corn ([16]; 500 g ai/ha): 40; Plant response rating, Rice, Flood ([17]; 125 g ai/ha): 0; Plant response rating, Sedge, Umbrella, Flood ([18]; 125 g ai/ha): 70; Plant response rating, Ducksalad, Flood ([19]; 125 g ai/ha): 70; Plant response rating, Barnyardgrass, Flood ([20]; 125 g ai/ha): 0"
CCCn1nc(-c2ccc(F)cc2)nc1C(=O)c1ccnc(C(F)(F)F)c1 [Compound 20],0,80,20,100,80,90,0,20,20,90,0,0,0,20,0,0,0,20,20,10,"Plant response rating, Foxtail, Giant ([11]; 125 g ai/ha): 10; Plant response rating, Foxtail, Giant ([11]; 500 g ai/ha): 10; Plant response rating, Morningglory ([12]; 125 g ai/ha): 10; Plant response rating, Morningglory ([12]; 500 g ai/ha): 10; Plant response rating, Pigweed ([13]; 125 g ai/ha): 40; Plant response rating, Pigweed ([13]; 500 g ai/ha): 90; Plant response rating, Velvetleaf ([14]; 125 g ai/ha): 0; Plant response rating, Velvetleaf ([14]; 500 g ai/ha): 40; Plant response rating, Wheat ([15]; 125 g ai/ha): 20; Plant response rating, Wheat ([15]; 500 g ai/ha): 30; Plant response rating, Corn ([16]; 125 g ai/ha): 20; Plant response rating, Corn ([16]; 500 g ai/ha): 20; Plant response rating, Rice, Flood ([17]; 125 g ai/ha): 0; Plant response rating, Sedge, Umbrella, Flood ([18]; 125 g ai/ha): 0; Plant response rating, Ducksalad, Flood ([19]; 125 g ai/ha): 0; Plant response rating, Barnyardgrass, Flood ([20]; 125 g ai/ha): 0"
CSc1nc(-c2ccc(F)cc2)nn1Cc1ccnc(C(F)(F)F)c1 [Compound 21],0,0,10,80,0,60,0,0,10,90,0,0,0,0,0,0,0,10,20,20,"Plant response rating, Foxtail, Giant ([11]; 125 g ai/ha): 10; Plant response rating, Foxtail, Giant ([11]; 500 g ai/ha): 20; Plant response rating, Morningglory ([12]; 125 g ai/ha): 20; Plant response rating, Morningglory ([12]; 500 g ai/ha): 30; Plant response rating, Pigweed ([13]; 125 g ai/ha): 30; Plant response rating, Pigweed ([13]; 500 g ai/ha): 80; Plant response rating, Velvetleaf ([14]; 125 g ai/ha): 10; Plant response rating, Velvetleaf ([14]; 500 g ai/ha): 20; Plant response rating, Wheat ([15]; 125 g ai/ha): 0; Plant response rating, Wheat ([15]; 500 g ai/ha): 10; Plant response rating, Corn ([16]; 125 g ai/ha): 10; Plant response rating, Corn ([16]; 500 g ai/ha): 20; Plant response rating, Rice, Flood ([17]; 250 g ai/ha): 25; Plant response rating, Sedge, Umbrella, Flood ([18]; 250 g ai/ha): 90; Plant response rating, Ducksalad, Flood ([19]; 250 g ai/ha): 95; Plant response rating, Barnyardgrass, Flood ([20]; 250 g ai/ha): 80"
CCCc1nc(-c2ccc(Cl)cc2)nn1Cc1ccnc(C(F)(F)F)c1 [Compound 22],40,70,100,100,100,100,10,70,100,100,20,40,10,20,10,20,40,60,100,100,"Plant response rating, Foxtail, Giant ([11]; 125 g ai/ha): 70; Plant response rating, Foxtail, Giant ([11]; 500 g ai/ha): 80; Plant response rating, Morningglory ([12]; 125 g ai/ha): 50; Plant response rating, Morningglory ([12]; 500 g ai/ha): 80; Plant response rating, Pigweed ([13]; 125 g ai/ha): 100; Plant response rating, Pigweed ([13]; 500 g ai/ha): 100; Plant response rating, Velvetleaf ([14]; 125 g ai/ha): 60; Plant response rating, Velvetleaf ([14]; 500 g ai/ha): 100; Plant response rating, Wheat ([15]; 125 g ai/ha): 30; Plant response rating, Wheat ([15]; 500 g ai/ha): 40; Plant response rating, Corn ([16]; 125 g ai/ha): 20; Plant response rating, Corn ([16]; 500 g ai/ha): 50; Plant response rating, Rice, Flood ([17]; 250 g ai/ha): 0; Plant response rating, Sedge, Umbrella, Flood ([18]; 250 g ai/ha): 0; Plant response rating, Ducksalad, Flood ([19]; 250 g ai/ha): 0; Plant response rating, Barnyardgrass, Flood ([20]; 250 g ai/ha): 0"
